Assays:
[1] = tested on: NMDA or AMPA-mediated transmission; experiment: VTA slice, NMDA or AMPA-mediated transmission; type: cell-based, mouse
Method: Electrophysiology. Preparation of Brain slices: Mice (8-10 weeks) were injected AAV10 HaloTag™-dTomato to striatum or ventral tegmental area (VTA). After 3-5 weeks, mice were deeply anesthetized with isoflurane and euthanized by decapitation. Coronal brain slices ([…]) containing striatum or VTA were prepared by standard methods using a Vibratome (Leica, VT 1200S), in ice-cold high sucrose cutting solution containing (in mM) 220 sucrose, 3 KCl, 1.25 NaH2PO4, 25 NaHCO3, 12 MgSO4.7H2O, 10 glucose, and 0.2 CaCl2) bubbled with 95% O2 and 5% CO2. […]
Whole-cell patch-clamp recording: The brain slices or retinas were perfused with bubbled aCSF at 29-30° C. with a 2 ml/min flow rate. […] Series resistance was monitored using 5-10 mV hyperpolarizing step throughout the experiment, and cells were discarded if series resistance changed more than ˜15% during the experiment. […] Statistical significance was determined using Student's t or one-way or two-way ANOVA tests. eIPSCs or eEPSCs decay time constants were obtained by fitting a single-exponential function, I(t)=I exp(−t/T)+ISS, where I(t) is the amplitude of the current at time t and ISS is the steady-state current, I is instantaneous current subtracted from Iss, and t is the time constant of decay. […]

[2] = tested on: DAT-Cre mice with +HTP or ddHTP in VTA dopamine neurons; experiment: locomotor speed after infusion into the VTA of DAT-Cre mice; type: in vivo, mouse; details: for running / locomotor speed, +HTP mice: 10:1 mixture with Alexa647.1DART.2, 1.2 μL of 10 μM into the VTA; for running / locomotor speed, ddHTP mice: same dose
Excerpt: (FIG. 4A) Validation of gabazine.1^DART.2 in cerebellar slice. Top: voltage-clamp schematic. Bottom: tonic GABAAR in granule cells expressing ^+HTP or ^ddHTP. […] Data are mean±SEM, cells normalized to baseline. (FIG. 4B) In vivo delivery of gabazine.1^DART.2 to cerebellar granule cells. Top right: schematic of experimental approach, GCaMP6f granule-cell activity obtained in the absence of sensory stimuli. Top left: example field of view, GCaMP6f signal averaged across trials. Bottom: example calcium traces (ΔF/F) in an awake ^+HTP mouse before (baseline) and after (1 μL of 1 μM gabazine.1^DART.2) infusion. (FIG. 4C) In vivo, 1 μL of 1 μM gabazine.1^DART.2 to ^+HTP mice. Color indicates ΔF/F, each row is one cell before (left) and after (right) gabazine.1^DART.2 infusion. […] (FIG. 4D) In vivo, 1 μL of 1 μM gabazine.1^DART.2 to ^ddHTP mice. Format as in panel C. […] (FIG. 4E) Validation of gabazine.7^DART.2 in VTA slice. Top: evoked-IPSC configuration. […] Data are mean±SEM, cells normalized to baseline. […] Data are mean±SEM, normalized to baseline speed of each animal.
Behavioral assays: Assays were performed at least 3 weeks after viral injection to allow for recombinant protein expression. Mice were acclimated to head-fixation for 3 consecutive days prior to behavioral experiments. Reagents were infused into the brain via the cranial cannula. Immediately following infusion, mice were placed into open-field chambers (27 cm×27 cm) in the dark, and behavior was recorded using infrared video.
A practical issue for intrinsically active neurons is that one can no longer leverage the concept of a floor-effect (i.e., silencing an already quiet neuron), making it difficult to apply optogenetic principles of necessity and sufficiency. Thus, it was sought to examine the technical feasibility of using DART to block neurotransmitter signaling onto these cells; in essence, preventing extrinsic neurotransmitter modulation of dopamine neurons, without disrupting their intrinsic rhythm. Moreover, it was sought to use behavior as the readout, which would likely require manipulation of more cells over a larger brain volume than in the prior experiment. Given this goal, a wide dosing window is key, and thus effort was focused on gabazine.7DART.2, with expression of AAV DIO +HTPGPI or AAV DIO ddHTPGPI in DAT-Cre mice. […] Next, locomotor effects of the manipulations were assessed using the same viral parameters along with bilateral indwelling cannula.

## COc1cc(CCCCl)ccc1CCOCCNC(=O)c1ccc(CNC(=O)CCOCCOCCOCCOCCOCCOCCOCCOCCOCCOCCOCCOCCOCCOCCOCCOCCOCCOCCOCCOCCOCCOCCOCCOCCOCCOCCOCCOCCOCCOCCOCCOCCOCCOCCOCCOCCn2cc(COCCOCCOCCOCCOCCOCCNC(=O)CCCn3c(=O)c(=O)[nH]c4cc([N+](=O)[O-])c(-n5ccnc5)cc43)nn2)cc1 [YM90K.1DART.2]
[1]
  antagonism of the AMPAR in slice: potent antagonism of the AMPAR
[2]; VTA dopamine neurons
  impact on locomotion: no impact on locomotion

## COc1cc(CCCCl)ccc1CCOCCNC(=O)c1ccc(CNC(=O)CCOCCOCCOCCOCCOCCOCCOCCOCCOCCOCCOCCOCCOCCOCCOCCOCCOCCOCCOCCOCCOCCOCCOCCOCCOCCOCCOCCOCCOCCOCCOCCOCCOCCOCCOCCOCCn2cc(COCCOCCOCCOCCOCCOCCOCCCCCCOc3ccc(-c4nn(CCCCC(=O)O)c(=N)cc4C)cc3)nn2)cc1 [gabazine.7DART.2]
[1]; +HTP cells
  impact on NMDA or AMPA-mediated transmission: no impact on NMDA or AMPA-mediated transmission
[2]
  running / locomotor speed, +HTP mice: significant increase in running speed
  running / locomotor speed, ddHTP mice: no impact in ^ddHTP animals
[2]; listed as gabazine.7^DART.2
  running / locomotor speed, +HTP mice: increased locomotor speed
  running / locomotor speed, ddHTP mice: not in ^ddHTP control mice

— patent US20250213700A1, “COMPOUNDS, COMPOSITIONS, AND METHODS FOR CELL-SPECIFIC PHARMACOLOGY” (Duke University, priority 2022, published 2025)
